These results are taken from patent publication US9260504B2, “N- and C-terminal substituted antagonistic analogs of GH-RH” (University of Miami, priority 2008, dated 2016).

Holding throughout (type): in vivo
Experiment [1] deals with SK-Hep-1 human hepatocellular cancer. Kind of experiment: SK-Hep-1 human hepatocellular cancer xenografts in nude mice. The following applies: 10 μg/day s.c. Here is the method:
SK-Hep-1 cancers were transplanted s.c. into both flank areas of 66 female nude mice, and allowed to grow for 47 days before starting the treatment with GH-RH antagonists. The mice were randomly assigned into 4 experimental groups with 8 animals in each group and received single daily injections for 135 days as follows: 1. Control (vehicle solution); 2. JMR-132 (10 μg/day s.c.); 3. Peptide 1109 (5 μg/day s.c.); 4. Peptide 1109 (10 μg/day s.c.). Tumor volumes were measured once a week. The experiment was ended on day 135 by sacrificing the mice under Isoflurane anesthesia. Resulting tumors were cleaned, weighed, and snap-frozen until further analyses. Statistical analyses of the measurement results were done by two-tailed t-test, p<0.05 being considered significant. Data are presented as the means±S.E.
For orientation: Xenograft models place foreign cells or tissue in a host animal.

Experiment [2] has as its system NCI-N87 human gastric cancer. Kind of experiment: NCI-N87 human gastric cancer xenografts in nude mice. The conditions noted are these: 10 μg/day s.c. How it is done: NCI-N87 cancers were transplanted s.c. into both flank areas of 30 female nude mice. The mice were randomly assigned into 4 experimental groups with 6 to 9 animals in each group and received single daily injections for 77 days as follows: 1. Control (vehicle solution); 2. JMR-132 (10 μg/day s.c.); 3. Peptide 1109 (10 μg/day s.c.); 4. Peptide 11479 (10 μg/day s.c.). Tumor volumes were measured once a week. The experiment was ended on day 77 by sacrificing the mice under Isoflurane anesthesia. Resulting tumors were cleaned, weighed, and snap-frozen until further analyses. Statistical analyses of the measurement results were done by two-tailed t-test, p<0.05 being considered significant. Data are presented as the means±S.E.

The test system of experiment [3] is PC-3 human hormone-independent prostate cancer. The experiment is described as follows: PC-3 human prostate cancer xenografts in nude mice, Experiment 2. The following applies: 10 μg/day s.c. Here is the method:
(§1) Male nude mice were implanted s.c. with 3 mm^3 pieces of PC-3 human hormone-independent prostate cancer tissue on both flanks. When tumors reached a volume of approx. 50 mm^3, the mice were divided into 4 experimental groups with 8 to 10 animals in each group and received single daily injections for 35 days as follows: 1. Control (vehicle solution); 2. JMR-132 (10 μg/day s.c.); 3. Peptide 1109 (10 μg/day s.c.); 4. Peptide 11111 (10 μg/day s.c.); Tumor volumes were measured once a week. The experiment was ended on day 35 by sacrificing the mice under Isoflurane anesthesia. Resulting tumors were cleaned, weighed, and snap-frozen until further analyses. Statistical analyses of the measurement results were done by two-tailed t-test, p<0.05 being considered significant. Data are presented as the means±S.E.
Experiment 2 was similar to Experiment 1. Experiment 2 was started when PC-3 tumors had grown to approximately 50 mm^3 in volume. At this time, the animals were divided into 5 experimental groups with 8 animals in each group, and received single daily injections for 14 days as follows: 1. Control (vehicle solution); 2. JMR-132 (10 μg/day s.c.); 3. Peptide 1109 (5 μg/day s.c.); 4. Peptide 11109 (5 μg/day s.c.); 5. Peptide 11109 (2 μg/day s.c.). Further details of Experiment 2 are the same as for Experiment 1

Experiment [4] shares this test system. Kind of experiment: PC-3 human prostate cancer xenografts in nude mice, Experiment 3. The conditions noted are these: 10 μg/day s.c., 28 days. Here is the method: Male nude mice were implanted s.c. with 3 mm^3 pieces of PC-3 human hormone-independent prostate cancer tissue on both flanks. When tumors reached a volume of approximately 50 mm^3, the mice were divided into 12 experimental groups with 8 to 10 animals in each group and received single daily injections for 28 days as follows: 1. Control (vehicle solution); 2. JMR-132 (10 μg/day s.c.); 3. Peptide 11113 (2 μg/day s.c.); 4. Peptide 11119 (2 μg/day s.c.); 5. Peptide 11209 (2 μg/day s.c.); 6. Peptide 11313 (2 μg/day s.c.); 7. Peptide 11408 (2 μg/day s.c.); 8. Peptide 11435 (2 μg/day s.c.); 9. Peptide 11457 (2 μg/day s.c.); 10. Peptide 11459 (2 μg/day s.c.); 11. Peptide 11469 (2 μg/day s.c.); 12. Peptide 11491 (2 μg/day s.c.).
Tumor volumes were measured once a week. The experiment was ended on day 28 by sacrificing the mice under Isoflurane anesthesia. Resulting tumors were cleaned, weighed, and snap-frozen until further analyses. Statistical analyses of the measurement results were done by two-tailed t-test, p<0.05 being considered significant.

The test system is the same in experiment [5]. The experiment is described as follows: PC-3 human prostate cancer xenografts in nude mice, Experiment 1. The following applies: 10 μg/day s.c., daily for 35 days; means±S.E. How it is done:
as §1

For the substance “[PhAc^0-Tyr^1, D-Arg^2, Cpa^6, Ala^8, Har^9, Tyr(Me)^10, His^11, Abu^15, His^20, Nle^27, D-Arg^28, Har^29]hGH-RH(1-29)NH2 [JMR-132, reference compound]”, the “Tumors with total regression” value in experiment [1] (135 days) stood at 2. The “Tumor volume (mm^3) on day 135” value in experiment [1] (135 days, means±S.E.) is listed as 615 ± 372 mm^3. In experiment [1] (tumors removed at autopsy), the “Tumor weights (mg)” value is on record as 1006 ± 569 (7) mg. For the same substance, in experiment [2] (77 days), the “Effect on the growth of NCI-N87 cancers” value was “not effective” and the “Number of regressing tumors” value was 2. Besides, the “Tumor growth after 77 days (%)” value in experiment [2] (77 days, means±S.E.) is 409 ± 78%. In experiment [2] (day 77, means±S.E.), the “Tumor weights” value was determined as 407 ± 175 mg. Moreover, in experiment [2] (calculated without the regressing tumors), the “Tumor doubling time” value is listed as 40.8 ± 5.9 days. Also, the “Tumor growth after 2 weeks (%)” value in experiment [3] (14 days) was 432%. Further, the “Inhibition (%)” value in experiment [3] (tumor growth after 2 weeks) was 39.61%. The “Tumor growth inhibition after 4 weeks (%)” value in experiment [4] is given as 28.11%. Further, the “Tumor growth after 5 weeks (%)” value in experiment [5] amounted to 2820 ± 498%.
